Measurements taken from ChEMBL document CHEMBL1132518, “Symmetrical anhydride-type serine protease inhibitors: structure-activity relationship studies of human chymase inhibitors” (Bioorg Med Chem Lett, 1999).

Key:
Chymase = molecular target: T1, Chymase (Homo sapiens, UniProt P23946); assay: Inhibitory activity against human chymase (h-chymase)
T1 sequence (P23946 whole entry): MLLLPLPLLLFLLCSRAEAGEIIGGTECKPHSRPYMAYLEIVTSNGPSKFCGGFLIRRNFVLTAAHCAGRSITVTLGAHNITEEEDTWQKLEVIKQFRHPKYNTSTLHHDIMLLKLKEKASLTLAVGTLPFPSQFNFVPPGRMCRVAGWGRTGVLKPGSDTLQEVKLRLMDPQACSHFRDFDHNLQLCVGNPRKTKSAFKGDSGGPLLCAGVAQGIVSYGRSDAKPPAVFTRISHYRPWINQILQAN

Cathepsin G = molecular target: T2, Cathepsin G (Homo sapiens, UniProt P08311); assay: Inhibitory activity against human leukocyte cathepsin G (h-CG)
T2 sequence (P08311 whole entry): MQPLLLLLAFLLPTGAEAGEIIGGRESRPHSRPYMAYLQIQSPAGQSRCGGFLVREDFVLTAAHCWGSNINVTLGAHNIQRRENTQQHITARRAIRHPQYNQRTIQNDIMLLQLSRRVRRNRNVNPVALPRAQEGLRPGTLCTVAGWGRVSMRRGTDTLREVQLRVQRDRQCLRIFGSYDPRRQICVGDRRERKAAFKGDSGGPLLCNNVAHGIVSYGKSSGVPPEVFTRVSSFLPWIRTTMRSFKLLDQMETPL

| IC50 (Chymase) [µM] | IC50 (Cathepsin G) [µM] | SMILES |
| --- | --- | --- |
| 0.27 |  | CC(C)(C(=O)OC(=O)C(C)(C)C(CCc1ccccc1)NC(=O)c1ccc(C#N)cc1)C(CCc1ccccc1)NC(=O)c1ccc(C#N)cc1 (stereo unspecified) |
| 0.058 |  | CCCC(NC(=O)c1ccccc1)C(C)(C)C(=O)OC(=O)C(C)(C)C(CCC)NC(=O)c1ccccc1 (stereo unspecified) |
| > 1000 |  | O=C(CC(CCc1ccccc1)NC(=O)c1ccccc1)OC(=O)CC(CCc1ccccc1)NC(=O)c1ccccc1 (stereo unspecified) |
| 29 | 1.6 | CCCCCC(NC(=O)CCC)C(C)(C)C(=O)OC(=O)C(C)(C)C(CCCCC)NC(=O)CCC (stereo unspecified) |
| 0.13 | 0.069 | CC(C)(C(=O)OC(=O)C(C)(C)C(NC(=O)c1ccc(C#N)cc1)C1CC=CCC1)C(NC(=O)c1ccc(C#N)cc1)C1CC=CCC1 (stereo unspecified) |
| 0.037 |  | CCC(NC(=O)c1ccccc1)C(C)(C)C(=O)OC(=O)C(C)(C)C(CC)NC(=O)c1ccccc1 (stereo unspecified) |
| 3 |  | CC(C)(CNC(=O)c1ccccc1)C(=O)OC(=O)C(C)(C)CNC(=O)c1ccccc1 |
| 40 | 3.1 | O=C(CCNC(=O)c1ccccc1)OC(=O)CCNC(=O)c1ccccc1 |
| 13 |  | CC(C)(C(=O)OC(=O)C(C)(C)C(NC(=O)c1ccc(C#N)cc1)c1ccccc1)C(NC(=O)c1ccc(C#N)cc1)c1ccccc1 (stereo unspecified) |
| 0.032 |  | CCCCCCC(NC(=O)c1ccccc1)C(C)(C)C(=O)OC(=O)C(C)(C)C(CCCCCC)NC(=O)c1ccccc1 (stereo unspecified) |
| 0.005 |  | CCCCC(NC(=O)c1ccccc1)C(C)(C)C(=O)OC(=O)C(C)(C)C(CCCC)NC(=O)c1ccccc1 (stereo unspecified) |
| 8.7 |  | Cc1ccccc1C(NC(=O)c1ccc(C#N)cc1)C(C)(C)C(=O)OC(=O)C(C)(C)C(NC(=O)c1ccc(C#N)cc1)c1ccccc1C (stereo unspecified) |
| 47 |  | CC(C)(C(=O)OC(=O)C(C)(C)C(NC(=O)c1ccc(C#N)cc1)c1ccccc1Cl)C(NC(=O)c1ccc(C#N)cc1)c1ccccc1Cl (stereo unspecified) |
| 0.013 |  | CCCCCC(NC(=O)c1ccccc1)C(C)(C)C(=O)OC(=O)C(C)(C)C(CCCCC)NC(=O)c1ccccc1 (stereo unspecified) |
| 0.091 |  | CC(C)(C(=O)OC(=O)C(C)(C)C(CCc1ccccc1)NC(=O)c1ccccc1)C(CCc1ccccc1)NC(=O)c1ccccc1 (single isomer, unassigned; (+)) |
| 0.0056 |  | CCCC(=O)NC(CCc1ccccc1)C(C)(C)C(=O)OC(=O)C(C)(C)C(CCc1ccccc1)NC(=O)CCC (stereo in doubt; 9 (-)) |
| 0.02 |  | CC(C)(C(=O)OC(=O)C(C)(C)C(CCc1ccccc1)NC(=O)c1ccccc1)C(CCc1ccccc1)NC(=O)c1ccccc1 (stereo in doubt; 9) |
| 2.6 |  | CCCC(=O)NC(CCc1ccccc1)C(C)(C)C(=O)OC(=O)C(C)(C)C(CCc1ccccc1)NC(=O)CCC (stereo in doubt; 15) |
